Here are results for one compound from patent US20100130408A1, “USE OF MODIFIED CYCLOSPORINS” (priority 2006, published 2010).

For orientation: viability means a read-out of living cells in per cent, often relative to untreated cells. Read a low viability as more harm to the cells.

The subject of data set [1] is HSCs. The data set can be described thus: Type 1 collagen assay (ELISA of culture media). The settings on record: rat HSCs. Format: cell-based. As to the method:
(§1) A. In vitro Cell culture: HSCs are isolated from the liver of male Wistar rats by sequential in situ perfusion with collagenase and digestion with pronase, followed by centrifugation in a double-layered (17%/11.5%) metrizamide solution (Sigma. Chemical, St. Louis, Mo.), as described in Kato, et al, J. Hepatol (1999) 31:91-99. HSCs are cultured in Dulbecco's modified Eagle's medium (DMEM) with 10% fetal calf serum (FCS). Experiments are performed on cells between the third and fourth serial passages. To measure […] matrix metalloproteinase (MMP-1) and tissue inhibitor of matrix metalloproteinase (TIMP-1), TWNT-4 cells which is a human cell line derived from HSCs as produced according to Shibata, et al, Cell Transplant (2003) 12:499-507 is used for evaluating the effects of Fasudil on MMP-1 and TIMP-1. TWNT-4 cells are cultured in DMEM with 10% FCS as reported previously (Id). NIM811 (Novartis Pharma AG, Basel, Switzerland) is dissolved in DMEM and added to cultures. Cell viability of HSCs is more than 90% under serum-free conditions for 24 h in the presence of 2 μM NIM811.
Type 1 collagen assay: Cultured HSCs are incubated in serum-free medium in the presence or absence of NIM811 for 24 h. Type I collagen is determined in culture media by ELISA as described in Iwamoto, et al, J. Hepatol (2000) 32:762-770. […]

Data set [2] has as its system TWNT-4 cells. As to the kind of experiment: MMP-1, TIMP-1, and collagenase assay. Format: cell-based, human. As to the method:
as §1
MMP-1, TIMP-1, and collagenase assay: Cultured TWNT-4 cells are incubated in serum-free medium in the presence or absence of NIM811 for 24 h. MMP-1 and TIMP-1 production are determined in culture media by ELISA with a Biotrak ELISA system for human MMP-1 (Amersham Biosciences, Piscataway, N.J., USA) and an hTIMP-1 kit (Daiichi Fine Chemical Co. Ltd., Toyama, Japan), respectively following procedures described in Fukushima, et al, Liver Int (2005) 25:829-838. Active MMP-1 and pro-MMP-1 in culture media are determined with a MMP-1 Biotrak Activity Assay System (Amersham).

Data set [3] relates to HSCs. The data set can be described thus: BrdU incorporation (cell proliferation ELISA). Format: cell-based, rat. Here is the method: as §1, with “Cell viability of HSCs is more than 90% under serum-free conditions for 24 h in the presence of 2 μM NIM811.” left out
Analysis of BrdU incorporation: HSC incorporation of BrdU is measured using a cell proliferation ELISA (Roche Diagnostics GmbH, Mannheim, Germany) as described in Higashi, et al, J. Lab Clin Med (2005) 145(6):316-322. […] BrdU incorporation is estimated by measuring the […].

In data set [4] the test system is HSCs. The data set can be described thus: Analysis of apoptosis (TUNEL). In kind it is cell-based, rat. The settings on record: 2 μM. As to the method:
as §1, with “Cell viability of HSCs is more than 90% under serum-free conditions for 24 h in the presence of 2 μM NIM811.” left out
Analysis of Apoptosis: HSCs are maintained in either the presence or absence of NIM811 in serum-free conditions for 24 h. […] Cells are then stained with Hoechst 33342, and analyzed by the TUNEL method using an In Situ Cell Death Detection Kit (Roche) according to the manufacturer's instructions. […] At least 100 cells from three independent experiments and from three different cell preparations are counted for each condition.

Data set [5] deals with MAPKs Signaling Pathways. The data set can be described thus: Western blot analysis for phospho- and nonphospho-MAPKs. Format: cell-based, human. Here is the method:
Western blot analysis for phospho- and nonphospho-MAPKs: Western blot analysis is performed as described in Uchimura, et al, Hepatology (2001) 33:91099. HSCs are starved for 24 h, then treated with or without NIM811 for 2 h. Whole cell lysates containing 1×10^7 TWNT-4 cells are prepared in 100 μl SDS-PAGE sample buffer. Protein lysates are subjected to 12% SDS-PAGE, transferred to a polyvinylidene difluoride membrane (Millipore, Bedford, Mass.), and probed with the primary antibody for ERK1/2 MAPK, phospho-ERK1/2 MAPK (Thr202/Tyr204), JNK, phospho-JNK (Thr183/Tyr185), p38 MAPK, or phospho-p38 MAPK (Thr180/Tyr182) (New England Biolabs, Beverly, Mass.). Antibody binding is detected using peroxidase linked anti-rabbit IgG (Amersham Pharmacia Biotech, Piscataway, N.J.) as the secondary antibody. The blots are developed using ECL-plus (Amersham Pharmacia Biotech, Piscataway, N.J.) to visualize the antibodies. The levels of ERK1/2 MAPK, phosphorylated-ERK1/2 MAPK, JNK, phosphorylated-JNK, p38 MAPK, and phosphorylated-p38 MAPK are quantitated by densitometry using an optical scanner system. For comparison, the ratios of phosphorylated ERK1/2, JNK, and p38 MAPK to nonphosphorylated ERK1/2, JNK, and p38 MAPK, respectively, are calculated from the densitometric data.
(Immunoblotting shows a protein as a band on a membrane.)

In data set [6] the test system is TGFβ Signaling Pathways. The data set can be described thus: Western blot analysis for phospho- and nonphospho-Smad2 and Smad3. In kind it is cell-based, human. The settings on record: 0.5 μM. Here is the method: Western blot analysis for phospho- and nonphospho-Smad2 and Smad3: Western blot analysis is performed as described above for MAPK analysis and probed with a primary antibody for Smad2, phospho-Smad2 (Thr/Tyr), Smad3, or phospho-Smad3 (Thr/Tyr) (Cell Signaling Technology, Danvers, Mass.). For comparison, the ratios of phosphorylated Smad2 and Smad3 to nonphosphorylated Smad2 and Smad3, respectively, are calculated from densitometric data.

Data set [7] can be described thus: Cell viability of HSCs. Format: cell-based. As to conditions: male, Wistar, rat, primary hepatic stellate cells (HSCs), 2 μM NIM811, serum-free conditions. Here is the method: as §1
For data set [8], the system named is cultured mouse hepatocytes. The settings on record: Kon et al, Hepatology (2004); cited from earlier work.
The target in data set [9] is cyclophilin A (Homo sapiens, UniProt P62937). The settings on record: Waldmeier et al, Mol Pharmacol (2002); cited from earlier work.

Structures are written as SMILES.

cyclophilin A, sequence (P62937 whole entry, species assumed): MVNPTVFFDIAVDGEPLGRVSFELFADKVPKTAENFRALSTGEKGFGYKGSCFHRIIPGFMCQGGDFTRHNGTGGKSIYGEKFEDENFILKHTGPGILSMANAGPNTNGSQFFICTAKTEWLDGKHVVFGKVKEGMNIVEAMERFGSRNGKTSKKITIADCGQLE

With `C/C=C/C[C@@H](C)[C@@H](O)[C@H]1C(=O)N[C@@H](CC)C(=O)N(C)CC(=O)N(C)[C@@H]([C@@H](C)CC)C(=O)N[C@@H](C(C)C)C(=O)N(C)[C@@H](CC(C)C)C(=O)N[C@@H](C)C(=O)N[C@H](C)C(=O)N(C)[C@@H](CC(C)C)C(=O)N(C)[C@@H](CC(C)C)C(=O)N(C)[C@@H](C(C)C)C(=O)N1C` [NIM811], the “reduction of collagen accumulation” value in [1] (0.5 μM) was “approximately 50%”. Besides, the “suppression of collagen accumulation” value in [1] (increasing concentrations, 24 h) is on record as “concentration-dependent suppression of collagen accumulation”. Moreover, the “increase in collagenase activity (active MMP-1)” value in data set [2] (0.5 μM) is “roughly 2 fold”. Also, the TIMP-1 production result in data set [2] (2.0 μM) is given as “does not significantly reduce TIMP-1 production”. Moreover, the “collagenase activity (active MMP-1) and pro-MMP-1 levels” value in [2] (increasing concentrations) is “concentration-dependent increase”. Further, the “cell growth of HSCs” value in data set [3] was “suppresses cell growth of HSCs in a concentration-dependent manner”. For the same compound, in data set [3] (2.0 μM), the “decrease of new DNA synthesis (BrdU incorporation)” value is roughly 30%. Moreover, the apoptosis entry in data set [4] was “no apoptosis is observed”. Also, the “phosphorylation of ERK1/2” value in data set [5] was “does not suppress ERK1/2”. Moreover, in data set [5] (0.5 μM), the “enhancement of phosphorylation of JNK” value is reported as roughly 3.6 fold and the “enhancement of phosphorylation of p38 MAPK” value is on record as roughly 2.3 fold. Moreover, in [6], the “suppression of phosphorylation of Smad2” value is listed as roughly 70% and the “suppression of phosphorylation of Smad3” value is listed as roughly 60%. The same compound showed a viability at 24 h, 2 µM in data set [7] greater than 90%. Besides, the “acetaminophen-induced necrosis and apoptosis” value in data set [8] is “prevented acetaminophen-induced necrosis and apoptosis”. Moreover, in data set [9], the “binding to cyclophilin A” value was “does not bind to cyclophilin A”.
